Results as given in patent publication US9765101B2, “Organo-arsenoxide compounds and use thereof” (NewSouth Innovations Pty Limited, priority 2006, dated 2017).
Several values for one entry are separate records, joined by “and”; a condition that tells them apart may be missing. Equal entries are not always repeated.

What was measured:
[1] = system: K562 cells (chronic myelogenous leukaemia); assay: K562 cell proliferation assay (MTT, 72 h); assay type: cell-based; details: K562, human chronic myelogenous leukaemia; read-out: IC50 for proliferation arrest
Method: (§1) BAE cells were from Cell Applications, San Diego, Calif. and BxPC-3, HT1080, LLC, PANC-1, MCF-7, HCT116 and K562 cells were from ATCC, Bethesda, Md. NB4 and MDCK2 cells were from Shane Supple (Kanematsu Laboratories, Royal Prince Alfred Hospital, Sydney, Australia) and P. Borst (The Netherlands Cancer Institute, Amsterdam, The Netherlands). BAE, HT1080, Panc-1, MCF-7, HCT116, MDCK2 and LLC cells were cultured in DMEM. NB4, K562 and BxPC-3 cells were cultured in RPMI medium. The cells were supplemented with 10% foetal calf serum (FBS), 2 mM L-glutamine, and 1 U·mL-1 penicillin/streptomycin. Cell culture plasticware was from Techno Plastic Products (Trasadingen, Switzerland). All other cell culture reagents were from Gibco (Gaithersburg, Md.).
(§2) Adherent cells were allowed to adhere overnight.

[2] = system: HCT1116 cells (colorectal carcinoma); assay: HCT116 cell proliferation assay (MTT, 72 h); assay type: cell-based; details: HCT1116, human colorectal carcinoma; read-out: IC50 for proliferation arrest
Method: as §1, §2

BAE cells [3] = assay: BAE cell viability / cytotoxicity (propidium iodide flow cytometry); assay type: cell-based, bovine; details: read-out: IC50 for loss of viability
Source text: as §2

BAE cells [4] = assay: BAE cell proliferation assay (MTT, 72 h); assay type: cell-based, bovine
Method: as §1, §2

[5] = system: BxPC-3 cells (pancreatic carcinoma); assay: BxPC-3 cell proliferation assay (MTT, 72 h); assay type: cell-based; details: BxPC-3, human pancreatic carcinoma; read-out: IC50 for proliferation arrest
Method: as §1, §2

[6] = system: organic anion transporting polypeptide (OATP); assay: OATP studies with inhibitor DIDS in BAE cells; assay type: cell-based, bovine
Method: 750,000 BAE cells were seeded in 6 well plates containing DMEM with 10% fetal calf serum and allowed to adhere overnight. Cells were pretreated or not with 500 μM 4,4′-diisothiocyanostilbene-2,2′-disulfonic acid (DIDS) for 30 min and then incubated with 20 μM (S)-Penicillamine arsenoxide for 2 h at 37° C. and 5% CO2. Cells were then washed twice with ice-cold PBS and lysed with 70% nitric acid. Cellular arsenic levels were determined by ICPMS. 5000 BAE cells were seeded in 96 well plates containing DMEM with 10% fetal calf serum and allowed to adhere overnight. Cells were pretreated or not with 300 μM DIDS for […] and then incubated with 1.5 μM (S)-Penicillamine arsenoxide for 24 h at 37° C. and 5% CO2. Cell viability was determined using MTT.

[7] = system: human BxPC-3 pancreatic carcinoma tumours; assay: Primary tumor growth assay, BxPC-3 tumours in BalbC nude mice; assay type: in vivo, mouse; details: for tumour doubling time: subcutaneous micro-osmotic pump, 28 day
Method: Female 7 to 9 week old Balb C nude mice were used (UNSW Biological Resource Centre). Mice were held in groups of 3 to 5 at a 12 h day and night cycle and were given animal chow and water ad libidum. A suspension of 2×10^6 BxPC-3 cells in 0.2 mL of PBS was injected subcutaneously in the proximal midline. Tumors were allowed to establish and grow to a size of ˜50 mm^3 after which they were randomized into four groups. Tumor volume was calculated using the relationship length×height×width×0.523. Tumor doubling time (TD) was calculated from the tumor growth rate curve during exponential growth using the formula […], where VF is final tumor volume and VI is initial tumor volume (Wolff et al., 2004). Animals were implanted with 28 day alzet model 1004 micro-osmotic pumps (ALZA Corporation, Palo Alto, Calif.) subcutaneously in the flank. The pumps delivery 0.25, 0.5 or 1 mg/kg/day (S)-Penicillamine arsenoxide in 100 mM glycine. Tumor volume and animal weight was measured every 2 or 3 days.
BalbC nude mice bearing subcutaneous human BxPC-3 pancreatic carcinoma tumours in the proximal midline were implanted with 28 day micro-osmotic alzet pumps subcutaneously in the flank. The pumps delivered 0.25, 0.5 or 1 mg per kg per day (S)-Penicillamine arsenoxide. […] The tumour doubling times are 9.2, 8.3, 13.9 and 16.2 days for groups treated with vehicle (100 mM glycine) or 0.25, 0.5 and 1 mg/kg/day (S)-Penicillamine arsenoxide, respectively.

BAE cells [8] = assay: Accumulation of arsenical in BAE cells (cytosolic arsenic by inductively coupled plasma spectrometry); assay type: cell-based, bovine; details: 50 μM
Method: BAE cells were seeded at a density of 1.5×10^6 cells in Petri dishes and allowed to adhere overnight. Cells were incubated with 50 μM (S)-Penicillamine-arsenoxide at discrete times for up to 2 h at 37° C. and then washed three times with ice-cold PBS. The washed cells were lysed in 1 mL of 70% w/w nitric acid. Petri dishes were then washed twice with 1 mL of PBS and kept at 4° C. until use. Samples were diluted 10-fold and analysed for arsenic atoms using an Elan 6100 Inductively Coupled Plasma Spectrometer (Perkin Elmer Sciex Instruments, Shelton, Conn.).

CC(C)(SCC(=O)Nc1ccc([As](O)O)cc1)[C@@H](N)C(=O)O [(S)-Penicillamine-arsenoxide, 4-(N—(S-penicillaminylacetyl)amino)phenylarsinous acid]
IC50 [1]: 1400 nM | IC50 [2]: 6000 nM | IC50 (BAE cells [3]): 3500 nM | times more effective than GSAO at blocking proliferation and reducing the viability of endothelial cells (BAE cells [4]): ~25 times | IC50 (BAE cells [4]; 72 h, read-out: IC50 for proliferation arrest): 400 nM and 430 nM | IC50 [5]: 13000 nM | effect of DIDS on anti-proliferative activity ([6]; 300 μM DIDS, then 1.5 μM compound 24 h): reduces its anti-proliferative activity | effect of DIDS on uptake ([6]; 500 μM DIDS 30 min, then 20 μM compound 2 h): inhibits (S)-Penicillamine arsenoxide uptake | tumour doubling time ([7]; 0.25 mg/kg/day): 8.3 days | tumour doubling time ([7]; 0.5 mg/kg/day): 13.9 days | tumour doubling time ([7]; 1 mg/kg/day): 16.2 days | growth of the BxPC-3 tumours ([7]; 0.25, 0.5 or 1 mg per kg per day): significantly inhibited | accumulation of connective tissue, mice affected ([7]; highest dose animals): 1 mouse | skin necrosis at the delivery site, mice affected ([7]; highest dose animals): 3 of the 10 | skin toxicity at pump delivery site ([7]; highest dose animals (1 mg/kg/day)): some skin toxicity at the pump delivery site | findings at delivery site at the lower doses ([7]; lower doses): some evidence of accumulation of connective tissue at the delivery site in the occasional mouse | animal weight versus vehicle ([7]; not shown): no change in the weight | initial rate of accumulation (BAE cells [8]): 69 pmol per 10^6 cells per min
